In patent US20240190855A1 (Relay Therapeutics, Inc., priority 2021, published 2024) one finds IC50 data, which are given here for 63 molecules.

Some results are limits rather than exact numbers.

This test addresses T1, CDK2/Cyclin E complex (Homo sapiens, UniProt P24941).
T1 construct: purchased Eurofins 14-475
Description: CDK2/Cyclin E fluorescence-based microfluidic mobility shift assay (CDK2 Biochemical Caliper Assay). Conditions: read-out: Biochemical CDK2/CyclinE Caliper IC50. The gist of the method: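 Microfluidic mobility-shift readout after EDTA termination measured phosphorylation of fluorescent FL Peptide 18 (1.5 uM final) in a 20 hr room-temperature reaction. Compounds were tested at 11 concentrations (3-fold).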
In the case of `COCc1cc2c(Nc3cc([C@H]4C[C@@H](OC(=O)NC(C)(C)CN5CCOCC5)CO4)[nH]n3)nccn2n1` [Example 703], the IC50 fell in the range of 250 to 1000 nM.

`Cn1nc(COC(F)(F)F)cc1C(=O)Nc1cc([C@H]2C[C@@H](OC(=O)NC3(C)CC3)CO2)[nH]n1` [Example 704]: the IC50 was not above 100 nM.

For `CCC1(NC(=O)O[C@H]2CO[C@@H](c3cc(Nc4nccn5nc(COC)cc45)n[nH]3)C2)CC1` [Example 705], the IC50 is not above 100 nM.

Take `CC(C)NC(=O)O[C@H]1CO[C@@H](c2cc(NC(=O)c3cc(COC(F)(F)F)nn3C)n[nH]2)C1` [Example 706]: the IC50 was not above 100 nM.

Take `COCc1cc2c(Nc3cc([C@H]4C[C@@H](Oc5nncn5C5(C)CC5)CO4)[nH]n3)nccn2n1` [Example 707]: the IC50 is not above 100 nM.

In the case of `COCc1cc2c(Nc3cc([C@H]4C[C@@H](COc5[nH]ncc5C(C)(C)C)C4)[nH]n3)nccn2n1` [Example 708], the IC50 is not above 100 nM.

For the molecule `COCc1cc2c(Nc3cc([C@H]4C[C@@H](Oc5nncn5C(C)(C)C)CO4)[nH]n3)nccn2n1` [Example 709], the IC50 was not above 100 nM.

As to `COCc1cc2c(Nc3cc([C@H]4C[C@@H](OC(=O)NC56CC(F)(C5)C6)CO4)[nH]n3)nccn2n1` [Example 710], the IC50 was not above 100 nM.

In the case of `COCc1cc2c(Nc3cc([C@H]4C[C@@H](OC(=O)N[C@H](C)C5COC5)CO4)[nH]n3)nccn2n1` [Example 711], the IC50 was 250 to 1000 nM.

Regarding `COCc1cc2c(Nc3cc([C@H]4C[C@@H](OC(=O)NC56CC(Cl)(C5)C6)CO4)[nH]n3)nccn2n1` [Example 712], the IC50 is not above 100 nM.

Regarding `Cn1nc(COC(F)(F)F)cc1C(=O)Nc1cc([C@H]2C[C@@H](OC(=O)NC(C)(C)C)CO2)[nH]n1` [Example 713], the IC50 was not above 100 nM.

As to `CC1(NC(=O)O[C@H]2CO[C@@H](c3cc(Nc4nccn5nc(COC(F)F)cc45)n[nH]3)C2)CC1` [Example 714], the IC50 is not above 100 nM.

Consider `COCc1cc2c(Nc3cc([C@@H]4C[C@H](Oc5nncn5C(C)C)CO4)[nH]n3)nccn2n1` [Example 715], for which the IC50 is not above 100 nM.

As for `COCc1cc2c(Nc3cc([C@H]4C[C@@H](OC(=O)NC56CCC(CC5)OC6)CO4)[nH]n3)nccn2n1` [Example 716], the IC50 was not above 100 nM.

As for `COCc1cc2c(Nc3cc([C@H]4C[C@@H](OC(=O)NC(C)(C)C#N)CO4)[nH]n3)nccn2n1` [Example 717], the IC50 is not above 100 nM.

On to `COCc1cc2c(Nc3cc([C@H]4C[C@@H](COc5[nH]ncc5C(C)C)C4)[nH]n3)nccn2n1` [Example 718], for which the IC50 is not above 100 nM.

For `COCc1cc2c(Nc3cc([C@@H]4C[C@H](Oc5nncn5C5(C)CC5)CO4)[nH]n3)nccn2n1` [Example 719], the IC50 was not above 100 nM.

Take `COCc1cc2c(Nc3cc([C@H]4C[C@@H](OC(=O)N[C@H](C)C(F)(F)F)CO4)[nH]n3)nccn2n1` [Example 720]: the IC50 is not above 100 nM.

For the molecule `COCc1cc2c(Nc3cc([C@H]4C[C@@H](OC(=O)N[C@@H](C)C(F)(F)F)CO4)[nH]n3)nccn2n1` [Example 721], the IC50 was not above 100 nM.

On to `CC1(NC(=O)O[C@H]2CO[C@@H](c3cc(Nc4ncnn5cccc45)n[nH]3)C2)CC1` [Example 722], for which the IC50 is not above 100 nM.

For the molecule `CC1(NC(=O)O[C@H]2CO[C@@H](c3cc(Nc4ccc5c(n4)C(C)(C)NC5=O)n[nH]3)C2)CC1` [Example 723], the IC50 is not above 100 nM.

As for `Cn1ncc2cnc(Nc3cc([C@H]4C[C@@H](OC(=O)NC5(C)CC5)CO4)[nH]n3)cc21` [Example 724], the IC50 is not above 100 nM.

With `CC1(NC(=O)O[C@H]2CO[C@@H](c3cc(Nc4ncnc5sncc45)n[nH]3)C2)CC1` [Example 725], the IC50 was not above 100 nM.

In the case of `COCc1cc2c(Nc3cc([C@H]4C[C@@H](OC(=O)C5CCC5(C)C)CO4)[nH]n3)nccn2n1` (stereo partly drawn) [Example 726], the IC50 is not above 100 nM.

Regarding `CC1(NC(=O)O[C@H]2CO[C@@H](c3cc(Nc4ccn5nccc5n4)n[nH]3)C2)CC1` [Example 727], the IC50 is not above 100 nM.

As to `C#CC1(NC(=O)O[C@H]2CO[C@@H](c3cc(Nc4nccn5nc(COC)cc45)n[nH]3)C2)CC1` [Example 728], the IC50 was not above 100 nM.

With `CC1(NC(=O)O[C@H]2CO[C@@H](c3cc(Nc4nccc5[nH]cnc45)n[nH]3)C2)CC1` [Example 730], the IC50 lay in the range of 250 to 1000 nM.

Take `CC1(NC(=O)O[C@H]2CO[C@@H](c3cc(Nc4ccc5nccn5n4)n[nH]3)C2)CC1` [Example 732]: the IC50 is not above 100 nM.

In the case of `COCc1cc2c(Nc3cc([C@H]4C[C@@H](OC(=O)N5CC6CC(C6)C5)CO4)[nH]n3)nccn2n1` [Example 733], the IC50 fell in the range of 100 to 250 nM.

Regarding `Cn1cc2ccnc(Nc3cc([C@H]4C[C@@H](OC(=O)NC5(C)CC5)CO4)[nH]n3)c2n1` [Example 734], the IC50 was 1000 to 100000 nM.

Regarding `CC1(NC(=O)O[C@H]2CO[C@@H](c3cc(Nc4nccc5nccn45)n[nH]3)C2)CC1` [Example 735], the IC50 was not above 100 nM.

As to `CC[C@H](C)NC(=O)O[C@H]1CO[C@@H](c2cc(Nc3ccc4c(n3)C(C)(C)NC4=O)n[nH]2)C1` [Example 736], the IC50 was not above 100 nM.

`CC1(NC(=O)O[C@H]2CO[C@@H](c3cc(Nc4ccnc5nc[nH]c45)n[nH]3)C2)CC1` [Example 737]: the IC50 fell in the range of 100 to 250 nM.

Consider `CC1(NC(=O)O[C@H]2CO[C@@H](c3cc(Nc4ncnc5[nH]ccc45)n[nH]3)C2)CC1` [Example 738], for which the IC50 was 250 to 1000 nM.

As for `C[C@H](NC(=O)O[C@H]1CO[C@@H](c2cc(Nc3ccc4c(n3)C(C)(C)NC4=O)n[nH]2)C1)C1CC1` [Example 740], the IC50 was not above 100 nM.

On to `COCc1cc2c(Nc3cc([C@H]4C[C@@H](Oc5nncn5C5(C(F)(F)F)CC5)CO4)[nH]n3)nccn2n1` [Example 741], for which the IC50 was 100 to 250 nM.

Regarding `COCc1cc2c(Nc3cc([C@@H]4C[C@H](Oc5nncn5C(C)(C)C)CO4)[nH]n3)nccn2n1` [Example 742], the IC50 is not above 100 nM.

Regarding `Cn1cnc2c(Nc3cc([C@H]4C[C@@H](OC(=O)NC5(C)CC5)CO4)[nH]n3)nccc21` [Example 743], the IC50 lay in the range of 1000 to 100000 nM.

With `CC(C)c1nc(Nc2cc([C@H]3C[C@@H](OC(=O)NC4(C)CC4)CO3)[nH]n2)c2cc[nH]c2n1` [Example 744], the IC50 fell in the range of 100 to 250 nM.

Regarding `Cn1cc2c(Nc3cc([C@H]4C[C@@H](OC(=O)NC5(C)CC5)CO4)[nH]n3)nccc2n1` [Example 745], the IC50 is 100 to 250 nM.

For the molecule `C[C@H](NC(=O)O[C@H]1CO[C@@H](c2cc(NC(=O)c3cc(COC(F)(F)F)nn3C)n[nH]2)C1)C1CC1` [Example 746], the IC50 was not above 100 nM.

`Cn1ncc2c(Nc3cc([C@H]4C[C@@H](OC(=O)NC5(C)CC5)CO4)[nH]n3)nccc21` [Example 747]: the IC50 fell in the range of 250 to 1000 nM.

Regarding `CC1(NC(=O)O[C@H]2CO[C@@H](c3cc(Nc4ccnc5nccn45)n[nH]3)C2)CC1` [Example 748], the IC50 is not above 100 nM.

As to `CC(C)n1cnnc1O[C@H]1CO[C@@H](c2cc(Nc3nccc4nccn34)n[nH]2)C1` [Example 749], the IC50 was 100 to 250 nM.

`Cn1nc(COC(F)(F)F)cc1C(=O)Nc1cc([C@H]2C[C@@H](OC(=O)NC34CC(C3)C4)CO2)[nH]n1` [Example 750]: the IC50 is not above 100 nM.

On to `CC1(C)NC(=O)c2ccc(Nc3cc([C@H]4C[C@@H](OC(=O)NC56CC(C5)C6)CO4)[nH]n3)nc21` [Example 751], for which the IC50 was not above 100 nM.

On to `COCc1cc2c(Nc3cc([C@H]4C[C@@H](OC(=O)N[C@H](C)C(F)F)CO4)[nH]n3)nccn2n1` [Example 752], for which the IC50 was not above 100 nM.

On to `Cn1nc(COC(F)F)cc1C(=O)Nc1cc([C@H]2C[C@@H](OC(=O)NC3(C)CC3)CO2)[nH]n1` [Example 753], for which the IC50 was not above 100 nM.

Turning to `CC1(NC(=O)O[C@H]2CO[C@@H](c3cc(Nc4nccn5nc(C6CC6)cc45)n[nH]3)C2)CC1` [Example 754], the IC50 was not above 100 nM.

In the case of `CC1(NC(=O)O[C@H]2CO[C@@H](c3cc(Nc4ccn5c(Cl)nnc5n4)n[nH]3)C2)CC1` [Example 755], the IC50 lay within 250 to 1000 nM.

`CN1CCc2c(ccnc2Nc2cc([C@H]3C[C@@H](OC(=O)NC4(C)CC4)CO3)[nH]n2)C1` [Example 758]: the IC50 lay in the range of 1000 to 100000 nM.

Take `COCc1cc2c(Nc3cc([C@H]4C[C@@H](OC(=O)N[C@@H]5C[C@@H]5C)CO4)[nH]n3)nccn2n1` [Example 759]: the IC50 is not above 100 nM.

For `CC1(NC(=O)O[C@H]2CO[C@@H](c3cc(Nc4cc5nccnc5cn4)n[nH]3)C2)CC1` [Example 760], the IC50 was in the range of 250 to 1000 nM.

On to `CC1(NC(=O)O[C@H]2CO[C@@H](c3cc(Nc4ncnc5ncccc45)n[nH]3)C2)CC1` [Example 761], for which the IC50 is not above 100 nM.

Consider `CC1(NC(=O)O[C@H]2CO[C@@H](c3cc(Nc4ccc5nccnc5n4)n[nH]3)C2)CC1` [Example 762], for which the IC50 lay within 100 to 250 nM.

Regarding `COCc1cc2c(Nc3cc([C@H]4C[C@@H](OC(=O)N[C@@H](C)C(F)F)CO4)[nH]n3)nccn2n1` [Example 763], the IC50 is not above 100 nM.

Regarding `COCc1cc2c(Nc3cc([C@@H]4C[C@H](OC(=O)NC5(C(F)(F)F)CC5)CO4)[nH]n3)nccn2n1` [Example 764], the IC50 was not above 100 nM.

As to `COCc1cc2c(Nc3cc([C@@H]4C[C@H](OC(=O)N[C@H](C)C5CC5)CO4)[nH]n3)nccn2n1` [Example 765], the IC50 was not above 100 nM.

`COCc1cc2c(Nc3cc([C@@H]4C[C@H](OC(=O)N[C@@H](C)C5CC5)CO4)[nH]n3)nccn2n1` [Example 766]: the IC50 is not above 100 nM.

For the molecule `COCc1cc2c(Nc3cc([C@@H]4C[C@H](OC(=O)NC56CC(C5)C6)CO4)[nH]n3)nccn2n1` [Example 767], the IC50 is not above 100 nM.

In the case of `COCc1cc2c(Nc3cc([C@H]4C[C@@H](Oc5[nH]ncc5C(C)(C)C)CO4)[nH]n3)nccn2n1` [Example 768], the IC50 is not above 100 nM.

Regarding `CC1(NC(=O)O[C@H]2CO[C@@H](c3cc(Nc4nccn5nc(C(F)F)cc45)n[nH]3)C2)CC1` [Example 769], the IC50 is not above 100 nM.

As to `Cn1nc(C(F)(F)F)cc1C(=O)Nc1cc([C@H]2C[C@@H](OC(=O)NC3(C)CC3)CO2)[nH]n1` [Example 770], the IC50 is not above 100 nM.
